Test results published in ChEMBL document CHEMBL5634157, “Design and synthesis of certain 7-Aryl-2-Methyl-3-Substituted Pyrazolo{1,5-a}Pyrimidines as multikinase inhibitors” (Eur J Med Chem, 2023).
The source made the active and inactive calls. The calls are words filed in the database; no cut-off is given here.

Assays:
[1] = target: Casein kinase II subunit alpha (Homo sapiens, UniProt P68400); test: Inhibition of human recombinant full-length C-terminal His tagged-CK2 alpha expressed in Escherichia coli using tetra-methylbenzidine as substrate in presence of ATP by ELISA analysis
Sequence of Casein kinase II subunit alpha (P68400 whole entry): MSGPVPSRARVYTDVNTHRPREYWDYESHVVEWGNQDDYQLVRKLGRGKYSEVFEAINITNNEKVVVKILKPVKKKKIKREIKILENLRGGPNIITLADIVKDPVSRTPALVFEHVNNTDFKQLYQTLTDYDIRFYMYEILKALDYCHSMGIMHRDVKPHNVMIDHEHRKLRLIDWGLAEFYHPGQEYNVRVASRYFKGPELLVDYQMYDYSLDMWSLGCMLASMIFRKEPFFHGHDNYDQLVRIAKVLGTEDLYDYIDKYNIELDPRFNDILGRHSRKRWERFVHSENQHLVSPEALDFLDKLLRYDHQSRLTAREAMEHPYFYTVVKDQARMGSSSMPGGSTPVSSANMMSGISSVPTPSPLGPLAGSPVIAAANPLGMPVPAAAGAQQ

[2] = target: T1, Serine/threonine-protein kinase Chk1 (Homo sapiens, UniProt O14757); test: Inhibition of human recombinant CHK1 using CHKtide as substrate in presence of ATP by ADP-Glo luminescence kinase assay
T1 sequence (O14757 whole entry): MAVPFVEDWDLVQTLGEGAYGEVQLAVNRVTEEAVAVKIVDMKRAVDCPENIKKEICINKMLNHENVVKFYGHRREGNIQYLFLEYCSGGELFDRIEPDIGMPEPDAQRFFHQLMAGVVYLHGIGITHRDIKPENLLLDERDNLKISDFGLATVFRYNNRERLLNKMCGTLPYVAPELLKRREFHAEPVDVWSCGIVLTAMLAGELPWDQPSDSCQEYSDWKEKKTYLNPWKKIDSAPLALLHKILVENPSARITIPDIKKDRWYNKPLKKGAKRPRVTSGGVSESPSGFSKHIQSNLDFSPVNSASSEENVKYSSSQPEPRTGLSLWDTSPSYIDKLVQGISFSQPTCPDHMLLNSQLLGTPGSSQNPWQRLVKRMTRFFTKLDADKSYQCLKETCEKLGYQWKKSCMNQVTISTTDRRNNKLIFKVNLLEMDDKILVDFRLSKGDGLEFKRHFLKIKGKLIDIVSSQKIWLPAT

[3] = target: Cyclin-dependent kinase 2 (Homo sapiens, UniProt P24941); test: Inhibition of human CDK2 by ELISA analysis
[4] = target: T2, Activin receptor type-1 (Homo sapiens, UniProt Q04771); test: Inhibition of human recombinant GST-tagged-ALK2 (147 to 509 residues) using Casein as substrate in presence of ATP by ADP-Glo luminescence assay
T2 sequence (Q04771 whole entry): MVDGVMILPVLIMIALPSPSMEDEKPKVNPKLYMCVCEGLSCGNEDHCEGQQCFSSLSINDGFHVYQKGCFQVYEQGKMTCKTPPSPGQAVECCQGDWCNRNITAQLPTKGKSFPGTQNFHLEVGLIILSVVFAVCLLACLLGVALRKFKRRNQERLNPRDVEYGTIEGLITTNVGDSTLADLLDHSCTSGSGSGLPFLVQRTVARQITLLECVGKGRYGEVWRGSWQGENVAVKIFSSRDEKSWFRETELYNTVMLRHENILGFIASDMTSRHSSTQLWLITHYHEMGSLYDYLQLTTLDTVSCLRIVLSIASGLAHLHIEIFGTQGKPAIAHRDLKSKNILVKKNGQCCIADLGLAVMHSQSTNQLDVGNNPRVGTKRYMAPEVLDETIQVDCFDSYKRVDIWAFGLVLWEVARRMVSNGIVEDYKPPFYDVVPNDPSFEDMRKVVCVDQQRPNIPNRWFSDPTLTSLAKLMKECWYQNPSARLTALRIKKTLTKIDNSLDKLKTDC

[5] = target: T3, Activin receptor type-1 (Homo sapiens) (UniProt Q04771); test: Inhibition of ALK2 in human EKVX cells by Western blotting analysis; assay type: cell-based
T3 sequence (whole entry): T2 sequence (Q04771 whole entry)

[6] = Inhibition of human recombinant FLT3 using myelin basic protein as substrate in presence of ATP by ADP-Glo luminescence kinase assay
[7] = Cytotoxicity against human FHCs assessed as inhibition of cell viability by MTT assay; assay type: toxicity, cell-based; conditions: FHC cells
[8] = Cytotoxicity against human MCF-10A cells assessed as inhibition of cell viability by MTT assay; assay type: toxicity, cell-based
[9] = target: Serine/threonine-protein kinase pim-1 (Homo sapiens, UniProt P11309); test: Inhibition of human recombinant full-length PIM1 expressed in baculovirus infected Sf9 cells using S6K as substrate in presence of ATP by ADP-Glo luminescence kinase assay
Sequence of Serine/threonine-protein kinase pim-1 (P11309 whole entry): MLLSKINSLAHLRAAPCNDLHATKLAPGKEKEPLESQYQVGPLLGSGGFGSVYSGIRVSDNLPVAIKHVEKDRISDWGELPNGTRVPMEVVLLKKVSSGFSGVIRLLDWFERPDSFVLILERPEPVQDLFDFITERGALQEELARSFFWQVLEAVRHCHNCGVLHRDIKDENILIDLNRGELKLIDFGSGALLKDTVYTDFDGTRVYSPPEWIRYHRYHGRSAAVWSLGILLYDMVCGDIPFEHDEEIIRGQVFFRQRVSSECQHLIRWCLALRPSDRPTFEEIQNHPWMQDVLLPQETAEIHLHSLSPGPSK

[10] = tested on: EKVX; test: Antiproliferative activity against human EKVX cells assessed as inhibition of cell viability by MTT assay
[11] = tested on: KM12; test: Antiproliferative activity against human KM12 cells assessed as inhibition of cell viability by MTT assay
[12] = target: Mast/stem cell growth factor receptor Kit (Homo sapiens, UniProt P10721); test: Inhibition of human recombinant N-terminal GST tagged-c-KIT (544 to end residues) expressed in baculovirus infected Sf9 cells using Poly (Glu,Tyr) 4:1 as substrate in presence of ATP by ADP-Glo luminescence kinase assay
Sequence of Mast/stem cell growth factor receptor Kit (P10721 whole entry): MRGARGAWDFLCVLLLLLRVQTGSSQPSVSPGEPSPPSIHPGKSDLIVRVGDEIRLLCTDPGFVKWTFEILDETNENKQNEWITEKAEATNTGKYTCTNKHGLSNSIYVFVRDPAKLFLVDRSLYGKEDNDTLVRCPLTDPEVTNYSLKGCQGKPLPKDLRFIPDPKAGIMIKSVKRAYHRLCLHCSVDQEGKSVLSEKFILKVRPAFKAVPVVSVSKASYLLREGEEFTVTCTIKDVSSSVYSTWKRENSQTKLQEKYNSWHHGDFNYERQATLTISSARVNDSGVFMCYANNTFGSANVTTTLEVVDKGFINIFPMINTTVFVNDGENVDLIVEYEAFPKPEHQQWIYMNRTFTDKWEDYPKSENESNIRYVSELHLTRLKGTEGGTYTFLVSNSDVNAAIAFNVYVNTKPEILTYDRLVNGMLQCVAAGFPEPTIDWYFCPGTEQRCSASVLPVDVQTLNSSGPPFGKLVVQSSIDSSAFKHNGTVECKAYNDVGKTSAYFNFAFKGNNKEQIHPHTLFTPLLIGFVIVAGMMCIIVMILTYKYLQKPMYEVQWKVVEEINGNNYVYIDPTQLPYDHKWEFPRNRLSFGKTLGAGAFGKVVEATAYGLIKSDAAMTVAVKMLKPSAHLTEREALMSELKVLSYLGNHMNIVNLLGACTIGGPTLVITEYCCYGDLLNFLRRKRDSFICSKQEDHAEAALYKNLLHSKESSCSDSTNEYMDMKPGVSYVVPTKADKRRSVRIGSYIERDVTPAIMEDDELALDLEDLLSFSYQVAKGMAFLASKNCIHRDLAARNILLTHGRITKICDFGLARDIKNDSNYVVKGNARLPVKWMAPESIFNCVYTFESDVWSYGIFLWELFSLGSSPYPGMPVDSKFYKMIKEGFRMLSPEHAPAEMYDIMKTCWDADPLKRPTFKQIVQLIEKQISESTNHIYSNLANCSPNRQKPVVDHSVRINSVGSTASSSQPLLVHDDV

[13] = target: Proto-oncogene tyrosine-protein kinase ROS (Homo sapiens, UniProt P08922); test: Inhibition of human recombinant GST tagged-ROS1 using IRF-1Rtide as substrate in presence of ATP by ADP-Glo luminescence kinase assay
[14] = target: Proto-oncogene tyrosine-protein kinase receptor Ret (Homo sapiens, UniProt P07949); test: Inhibition of human recombinant GST tagged-RET using IRF-1Rtide as substrate in presence of ATP by ADP-Glo luminescence kinase assay
Sequence of Proto-oncogene tyrosine-protein kinase receptor Ret (P07949 whole entry): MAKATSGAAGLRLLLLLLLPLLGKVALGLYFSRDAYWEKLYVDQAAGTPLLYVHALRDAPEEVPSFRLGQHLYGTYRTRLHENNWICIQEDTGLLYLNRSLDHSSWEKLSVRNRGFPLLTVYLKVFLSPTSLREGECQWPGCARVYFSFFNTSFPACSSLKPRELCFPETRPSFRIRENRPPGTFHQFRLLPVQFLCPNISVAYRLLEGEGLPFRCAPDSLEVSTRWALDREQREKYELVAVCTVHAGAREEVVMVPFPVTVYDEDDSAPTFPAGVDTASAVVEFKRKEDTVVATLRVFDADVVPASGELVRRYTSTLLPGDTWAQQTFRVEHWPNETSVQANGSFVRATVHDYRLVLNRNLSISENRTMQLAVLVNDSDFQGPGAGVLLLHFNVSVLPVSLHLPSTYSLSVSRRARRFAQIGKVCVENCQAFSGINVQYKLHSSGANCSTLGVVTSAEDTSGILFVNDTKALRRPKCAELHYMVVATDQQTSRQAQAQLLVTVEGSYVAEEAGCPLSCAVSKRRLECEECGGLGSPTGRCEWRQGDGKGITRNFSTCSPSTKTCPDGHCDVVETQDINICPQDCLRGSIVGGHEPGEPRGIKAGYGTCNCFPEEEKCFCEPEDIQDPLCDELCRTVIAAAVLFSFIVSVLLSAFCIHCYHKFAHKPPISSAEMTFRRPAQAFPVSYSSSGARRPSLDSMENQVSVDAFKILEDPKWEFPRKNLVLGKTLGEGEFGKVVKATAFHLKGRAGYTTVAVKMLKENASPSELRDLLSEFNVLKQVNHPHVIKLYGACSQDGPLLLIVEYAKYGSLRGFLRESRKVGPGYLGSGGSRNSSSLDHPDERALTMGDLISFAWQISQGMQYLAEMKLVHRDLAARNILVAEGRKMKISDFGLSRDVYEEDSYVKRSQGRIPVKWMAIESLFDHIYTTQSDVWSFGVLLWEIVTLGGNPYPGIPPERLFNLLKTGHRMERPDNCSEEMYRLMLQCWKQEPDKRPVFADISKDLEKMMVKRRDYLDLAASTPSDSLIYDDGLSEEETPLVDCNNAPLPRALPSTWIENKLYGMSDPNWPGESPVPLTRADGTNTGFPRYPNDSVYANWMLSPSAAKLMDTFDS

[15] = target: Epidermal growth factor receptor (Homo sapiens, UniProt P00533); test: Inhibition of human recombinant GST tagged-EGFR using Poly (Glu,Tyr) 4:1 as substrate in presence of ATP by ADP-Glo luminescence kinase assay
Sequence of Epidermal growth factor receptor (P00533 whole entry): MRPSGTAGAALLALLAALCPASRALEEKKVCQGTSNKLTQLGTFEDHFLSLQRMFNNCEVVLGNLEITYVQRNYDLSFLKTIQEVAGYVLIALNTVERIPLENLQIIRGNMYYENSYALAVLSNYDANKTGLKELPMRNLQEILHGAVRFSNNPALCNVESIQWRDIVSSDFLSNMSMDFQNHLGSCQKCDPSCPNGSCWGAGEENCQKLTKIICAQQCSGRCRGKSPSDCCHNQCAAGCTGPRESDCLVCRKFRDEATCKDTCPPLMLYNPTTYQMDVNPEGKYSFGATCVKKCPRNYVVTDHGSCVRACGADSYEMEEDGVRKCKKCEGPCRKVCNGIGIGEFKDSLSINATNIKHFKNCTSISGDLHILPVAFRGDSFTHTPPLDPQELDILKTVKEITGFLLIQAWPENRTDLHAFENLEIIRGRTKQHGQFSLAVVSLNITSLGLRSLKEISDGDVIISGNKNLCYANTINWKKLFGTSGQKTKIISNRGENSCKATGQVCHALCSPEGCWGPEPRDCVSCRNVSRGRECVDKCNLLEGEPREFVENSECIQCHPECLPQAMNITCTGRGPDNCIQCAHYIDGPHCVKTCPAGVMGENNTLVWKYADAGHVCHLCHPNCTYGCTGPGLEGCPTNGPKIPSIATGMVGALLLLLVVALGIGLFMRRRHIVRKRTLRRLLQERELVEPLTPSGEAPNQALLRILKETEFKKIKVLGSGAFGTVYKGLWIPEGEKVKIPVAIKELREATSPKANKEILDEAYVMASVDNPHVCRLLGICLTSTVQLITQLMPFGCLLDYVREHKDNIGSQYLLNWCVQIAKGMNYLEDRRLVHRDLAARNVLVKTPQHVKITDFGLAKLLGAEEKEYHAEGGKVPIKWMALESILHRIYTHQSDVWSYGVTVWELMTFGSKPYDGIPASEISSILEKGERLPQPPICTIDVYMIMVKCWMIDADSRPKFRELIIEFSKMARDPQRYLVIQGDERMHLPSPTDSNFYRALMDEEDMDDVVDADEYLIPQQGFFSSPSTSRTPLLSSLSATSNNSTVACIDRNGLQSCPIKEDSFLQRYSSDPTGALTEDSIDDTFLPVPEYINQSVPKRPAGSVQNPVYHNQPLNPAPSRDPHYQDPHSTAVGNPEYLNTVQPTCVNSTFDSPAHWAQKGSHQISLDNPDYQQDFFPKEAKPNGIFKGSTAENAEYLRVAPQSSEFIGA

| Compound | IC50 [1] | IC50 [2] | IC50 [3] | IC50 [4] | further results |
| --- | --- | --- | --- | --- | --- |
| Cc1nn2c(-c3ccccc3)ccnc2c1/C(N)=N/O | 72 nM | 85 nM | 1730 nM |  |  |
| Cc1nn2c(-c3ccc(Cl)cc3)ccnc2c1C#N |  |  |  | 235 nM |  |
| Cc1nn2c(-c3ccc(Cl)cc3)ccnc2c1C(N)=O |  |  |  | 182 nM |  |
| Cc1ccc(-c2ccnc3c(C#N)c(C)nn23)cc1 |  |  |  | 55 nM |  |
| C[C@H]1Oc2cc(cnc2N)-c2c(nn(C)c2C#N)CN(C)C(=O)c2ccc(F)cc21 [LORLATINIB] |  |  |  | 29 nM | inhibition [5]: Active |
| Cc1nn2c(-c3ccc(Cl)cc3)ccnc2c1/C(N)=N/O | 217 nM | 327 nM | 1070 nM |  |  |
| CCc1nc(C(N)=O)c(Nc2ccc(N3CCC(N4CCN(C)CC4)CC3)c(OC)c2)nc1NC1CCOCC1 [GILTERITINIB] |  |  |  |  | IC50 [6]: 64 nM |
| COc1cccc2c1C(=O)c1c(O)c3c(c(O)c1C2=O)C[C@@](O)(C(=O)CO)C[C@@H]3O[C@H]1C[C@H](N)[C@H](O)[C@H](C)O1 [DOXORUBICIN] |  |  |  |  | IC50 [7]: 17600 nM; IC50 [8]: 13400 nM |
| Cn1cc(-c2cnn3c(N)cc([C@@H]4CCCNC4)nc23)cn1 |  | 34 nM |  |  |  |
| Cc1nn2c(-c3ccc(Br)cc3)ccnc2c1/C(N)=N/O | 122 nM | 74 nM | 590 nM |  |  |
| O=c1c(O)c(-c2cc(O)c(O)c(O)c2)oc2cc(O)cc(O)c12 [MYRICETIN] |  |  |  |  | IC50 [9]: 4060 nM |
| Cc1nc(-c2c(C)nn3c(-c4ccccc4)ccnc23)no1 | 289 nM | 119 nM | 1290 nM |  |  |
| Cc1nn2c(-c3ccc(Br)cc3)ccnc2c1C(N)=O |  |  |  | 354 nM |  |
| Cc1nn2c(-c3ccc(Br)cc3)ccnc2c1C#N |  |  |  | 105 nM |  |
| O=C(Nc1cnn2ccc(N3CCC[C@@H]3c3cc(F)ccc3F)nc12)N1CC[C@H](O)C1 [LAROTRECTINIB] |  |  |  |  | IC50 [10]: 7330 nM; IC50 [11]: 4680 nM |
| COc1ccc(-c2ccnc3c(-c4noc(C)n4)c(C)nn23)cc1 | 93 nM | 156 nM | 710 nM | 37 nM | IC50 [12]: 59 nM; IC50 [13]: 759 nM; IC50 [14]: 537 nM; IC50 [15]: 106 nM |
